According to patent EP4678638A1, “NEW E3 UBIQUITIN LIGASE LIGAND, PROTEIN DEGRADATION AGENT AND USE THEREOF” (priority 2023, dated 2024):

Molecular target: T1, human Cereblon WT GST-tagged protein (Homo sapiens, UniProt Q96SW2)
T1 construct: purchased CISBIO 64BDCRBNPEH
Assay: CRBN binding, HTRF (CEREBLON BINDING kit)
Settings: Table II-2, CRBN binding screening, HTRF; for inhibition at 0.5 µM: read-out: Inhibition rate (%) at 0.5µM; for inhibition at 2 µM: read-out: Inhibition rate (%) at 2 µM
Experimental: The CEREBLON BINDING kits (specification: 10,000 tests; product number: Catalog # 64BDCRBNPEH; CISBIO company) was used to determine the CRBN binding ability of the compounds to be tested through a HTRF method (homogeneous time-resolved fluorescence). The specific methods are as follows: • 1. […] Then, 2.5 µL of human Cereblon WT GST-tagged protein solution was added to each well. Finally, 5 µL of the thoroughly mixed Thalidomide-Re reagent and GST Eu antibody working solution were added to each of the aforementioned wells. […] The blank control wells were sequentially added with 2.5 µL of diluent #9 (1X) solution, 2.5 µL of binding buffer, and 5 µL of thoroughly mixed Thalidomide-Re reagent and GST Eu antibody working solution. • 4. After sealing and incubating the solutions in the aforementioned wells at room temperature for 3 hours, the […] at emission wavelengths of 620 nm and 665 nm were detected by the HTRF method using a Spark microplate reader (V3.1 SP1).

T1 sequence (Q96SW2 whole entry): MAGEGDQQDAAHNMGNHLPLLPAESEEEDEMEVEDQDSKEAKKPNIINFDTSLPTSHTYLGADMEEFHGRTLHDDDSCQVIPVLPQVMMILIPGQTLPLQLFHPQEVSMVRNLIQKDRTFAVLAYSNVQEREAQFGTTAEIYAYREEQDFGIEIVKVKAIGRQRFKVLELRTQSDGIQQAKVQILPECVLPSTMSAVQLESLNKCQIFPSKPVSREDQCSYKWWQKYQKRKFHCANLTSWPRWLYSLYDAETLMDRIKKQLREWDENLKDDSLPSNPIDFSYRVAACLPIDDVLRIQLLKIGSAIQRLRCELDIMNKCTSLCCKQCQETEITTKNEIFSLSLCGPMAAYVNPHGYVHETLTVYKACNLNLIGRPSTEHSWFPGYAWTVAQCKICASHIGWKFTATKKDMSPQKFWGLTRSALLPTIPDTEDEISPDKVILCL

inhibition at 0.5 µM (at 0.5µM)	inhibition at 2 µM (at 2 µM)	SMILES	Inhibition rate (%) at 0.5µM (at 0.5µM)	Inhibition rate (%) at 2 µM (at 2 µM)
20 to 30%	60 to 80%	O=C1CCC(c2cc(CN3CCC(n4cc(NC(=O)c5cnn6ccc(N7C[C@H]8C[C@@H]7CO8)nc56)c(C(F)F)n4)CC3)ccn2)C(=O)N1 (stereo partly drawn) [GT-07776, 5-((1R,4R)-2-oxa-5-azabicyclo[2.2.1]heptan-5-yl)-N-(3-(difluoromethyl)-1-(1-((2-(2,6-dioxopiperidin-3-yl)pyridin-4-yl)methyl)piperidin-4-yl)-1H-pyrazol-4-yl)pyrazolo[1,5-a]pyrimidine-3-carboxamide]		
53 to 60%	80 to 100%	O=C1CCC(c2ccc(CN3CCC(n4cc(NC(=O)c5cnn6ccc(N7C[C@H]8C[C@@H]7CO8)nc56)c(C(F)F)n4)CC3)nc2)C(=O)N1 (stereo partly drawn) [GT-07777, 5-((1R,4R)-2-oxa-5-azabicyclo[2.2.1]heptan-5-yl)-N-(3-(difluoromethyl)-1-(1-((5-(2,6-dioxopiperidin-3-yl)pyridin-2-yl)methyl)piperidin-4-yl)-1H-pyrazol-4-yl)pyrazolo[1,5-a]pyrimidine-3-carboxamide]		
40 to 53%	80 to 100%	O=C1CCC(c2cncc(CN3CCC(n4cc(NC(=O)c5cnn6ccc(N7C[C@H]8C[C@@H]7CO8)nc56)c(C(F)F)n4)CC3)c2)C(=O)N1 (stereo partly drawn) [GT-07778, 5-((1R,4R)-2-oxa-5-azabicyclo[2.2.1]heptan-5-yl)-N-(3-(difluoromethyl)-1-(1-((5-(2,6-dioxopiperidin-3-yl)pyridin-3-yl)methyl)piperidin-4-yl)-1H-pyrazol-4-yl)pyrazolo[1,5-a]pyrimidine-3-carboxamide]		
20 to 30%	60 to 80%	CC(C)Nc1cc(-n2ccc3cc(C#N)cnc32)ncc1C(=O)NC1CCN(Cc2cc(N3CCC(=O)NC3=O)cnc2F)CC1 [GT-07779, 6-(5-cyano-1H-pyrrolo[2,3-b]pyridin-1-yl)-N-(1-((5-(2,4-dioxotetrahydropyrimidin-1(2H)-yl)-2-fluoropyridin-3-yl)methyl)piperidin-4-yl)-4-(isopropylamino)nicotinamide]		
30 to 40%	60 to 80%	CC(C)(O)c1cc2nn(C3CCN(Cc4cc(N5CCC(=O)NC5=O)cnc4F)CC3)cc2cc1NC(=O)c1cccc(C(F)(F)F)n1 [GT-07783, N-(2-(1-((5-(2,4-dioxotetrahydropyrimidin-1(2H)-yl)-2-fluoropyridin-3-yl)methyl)piperidin-4-yl)-6-(2-hydroxypropan-2-yl)-2H-indazol-5-yl)-6-(trifluoromethyl)picolinamide]		
20 to 30%	60 to 80%	O=C1CCN(c2cnc(F)c(CN3CCC(n4cc(NC(=O)c5cnn6ccc(N7CCOCC7)nc56)c(C(F)F)n4)CC3)c2)C(=O)N1 [GT-07789, N-(3-(difluoromethyl)-1-(1-((5-(2,4-dioxotetrahydropyrimidin-1(2H)-yl)-2-fluoropyridin-3-yl)methyl)piperidin-4-yl)-1H-pyrazol-4-yl)-5-morpholinopyrazolo[1,5-a]pyrimidine-3-carboxamide]		
30 to 40%	60 to 80%	O=C1CCN(c2cnc(F)c(CN3CCC(n4cc(NC(=O)c5cnn6ccc(N7C[C@H]8C[C@@H]7CO8)nc56)c(C(F)F)n4)CC3)c2)C(=O)N1 [GT-07791, 5-((1R,4R)-2-oxa-5-azabicyclo[2.2.1]heptan-5-yl)-N-(3-(difluoromethyl)-1-(1-((5-(2,4-dioxotetrahydropyrimidin-1(2H)-yl)-2-fluoropyridin-3-yl)methyl)piperidin-4-yl)-1H-pyrazol-4-yl)pyrazolo[1,5-a]pyrimidine-3-carboxamide]		
60 to 80%	80 to 100%	CC(C)(O)c1cc2nn(C3CCN(Cc4cc(C5CCC(=O)NC5=O)cnc4F)CC3)cc2cc1NC(=O)c1cccc(C(F)(F)F)n1 (stereo not drawn) [GT-07793, N-(2-(1-((5-(2,6-dioxopiperidin-3-yl)-2-fluoropyridin-3-yl)methyl)piperidin-4-yl)-6-(2-hydroxypropan-2-yl)-2H-indazol-5-yl)-6-(trifluoromethyl)picolinamide]		
20 to 30%	60 to 80%	COc1cc2nn(C3CCN(Cc4cc(N5CCC(=O)NC5=O)cnc4F)CC3)cc2cc1NC(=O)c1cccc(C(F)(F)F)n1 [GT-07799, N-(2-(1-((5-(2,4-dioxotetrahydropyrimidin-1(2H)-yl)-2-fluoropyridin-3-yl)methyl)piperidin-4-yl)-6-methoxy-2H-indazol-5-yl)-6-(trifluoromethyl)picolinamide]		
53 to 60%	80 to 100%	CN(Cc1cc(N2CCC(=O)NC2=O)cnc1F)C1CCN(c2ccc(-c3cc(F)c4c(c3)C(=O)N(C(C(=O)Nc3nccs3)c3ncn5c3CCC5)C4)cc2)CC1 (stereo not drawn) [GT-07823, 2-(6,7-dihydro-5H-pyrrolo[1,2-c]imidazol-1-yl)-2-(6-(4-(4-(((5-(2,4-dioxotetrahydropyrimidin-1(2H)-yl)-2-fluoropyridin-3-yl)methyl)(methyl)amino)piperidin-1-yl)phenyl)-4-fluoro-1-oxoisoindolin-2-yl)-N-(thiazol-2-yl)acetamide]		
60 to 80%	80 to 100%	O=C1CCN(c2cnc(F)c(CN3C[C@H]4C[C@@H]3CN4c3ccc(-c4cc(F)c5c(c4)C(=O)N(C(C(=O)Nc4nccs4)c4ncn6c4CCC6)C5)cc3)c2)C(=O)N1 (stereo partly drawn) [GT-07825, 2-(6,7-dihydro-5H-pyrrolo[1,2-c]imidazol-1-yl)-2-(6-(4-((1R,4R)-5-((5-(2,4-dioxotetrahydropyrimidin-1(2H)-yl)-2-fluoropyridin-3-yl)methyl)-2,5-diazabicyclo[2.2.1]heptan-2-yl)phenyl)-4-fluoro-1-oxoisoindolin-2-yl)-N-(thiazol-2-yl)acetamide]		
10 to 20%	53 to 60%	O=C1CCN(c2cnc(CN3C[C@H]4C[C@@H]3CN4c3ccc(-c4cc(F)c5c(c4)C(=O)N(C(C(=O)Nc4nccs4)c4ncn6c4CCC6)C5)cc3)cn2)C(=O)N1 (stereo partly drawn) [GT-07826, 2-(6,7-dihydro-5H-pyrrolo[1,2-c]imidazol-1-yl)-2-(6-(4-((1R,4R)-5-((5-(2,4-dioxotetrahydropyrimidin-1(2H)-yl)pyrazin-2-yl)methyl)-2,5-diazabicyclo[2.2.1]heptan-2-yl)phenyl)-4-fluoro-1-oxoisoindolin-2-yl)-N-(thiazol-2-yl)acetamide]		
		CC1(C)CCC(c2ccc(Cl)cc2)=C(CN2CCN(c3ccc(C(=O)NS(=O)(=O)c4ccc(N[C@H](CCN5CC6CCC5CN6Cc5ccc(C6CCC(=O)NC6=O)cc5)CSc5ccccc5)c(S(=O)(=O)C(F)(F)F)c4)cc3)CC2)C1 (stereo partly drawn) [GT-07878, 4-(4-((4'-chloro-4,4-dimethyl-3,4,5,6-tetrahydro-[1,1'-biphenyl]-2-yl)methyl)piperazin-1-yl)-N-((4-(((2R)-4-(5-(4-(2,6-dioxopiperidin-3-yl)benzyl)-2,5-diazabicyclo[2.2.2]octan-2-yl)-1-(phenylthio)butan-2-yl)amino)-3-((trifluoromethyl)sulfonyl)phenyl)sulfonyl)benzamide]	a3 (30% < a3 ≤ 40%)	a5 (53% < a5 ≤ 60%)
30 to 40%	30 to 40%	CC1(C)CCC(c2ccc(Cl)cc2)=C(CN2CCN(c3ccc(C(=O)NS(=O)(=O)c4ccc(N[C@H](CCN5CC6CCC5CN6Cc5cccc(NC6CCC(=O)NC6=O)c5)CSc5ccccc5)c(S(=O)(=O)C(F)(F)F)c4)cc3)CC2)C1 (stereo partly drawn) [GT-07882, 4-(4-((4'-chloro-4,4-dimethyl-3,4,5,6-tetrahydro-[1,1'-biphenyl]-2-yl)methyl)piperazin-1-yl)-N-((4-(((2R)-4-(5-(3-((2,6-dioxopiperidin-3-yl)amino)benzyl)-2,5-diazabicyclo[2.2.2]octan-2-yl)-1-(phenylthio)butan-2-yl)amino)-3-((trifluoromethyl)sulfonyl)phenyl)sulfonyl)benzamide]		
20 to 30%	53 to 60%	[2H]C1([2H])N(CC[C@H](CSc2ccccc2)Nc2ccc(S(=O)(=O)NC(=O)c3ccc(N4CCN(CC5=C(c6ccc(Cl)cc6)CCC(C)(C)C5)CC4)cc3)cc2S(=O)(=O)C(F)(F)F)C([2H])([2H])C([2H])([2H])N(Cc2ccc(C3CCC(=O)NC3=O)cc2)C1([2H])[2H] (stereo partly drawn) [GT-07906, 4-(4-((4'-chloro-4,4-dimethyl-3,4,5,6-tetrahydro-[1,1'-biphenyl]-2-yl)methyl)piperazin-1-yl)-N-((4-(((2R)-4-(4-(4-(2,6-dioxopiperidin-3-yl)benzyl)piperazin-1-yl-2,2,3,3,5,5,6,6-d8)-1-(phenylthio)butan-2-yl)amino)-3-((trifluoromethyl)sulfonyl)phenyl)sulfonyl)benzamide]		
